Assay results as given in patent publication US12187723B2 (BRISTOL-MYERS SQUIBB COMPANY, priority 2019, dated 2025).

Columns and labels:
human TLR7 = molecular target: T1, human TLR7 (Homo sapiens, UniProt Q9NYK1); assay: TLR7 inhibition reporter assay (HEK-Blue SEAP); format: cell-based; details: HEK-Blue cells overexpressing human TLR7, gardiquimod 7.5 μM, 22 hour incubation
T1 construct: host or cells: HEK-Blue cells
T1 sequence (Q9NYK1 27-1049): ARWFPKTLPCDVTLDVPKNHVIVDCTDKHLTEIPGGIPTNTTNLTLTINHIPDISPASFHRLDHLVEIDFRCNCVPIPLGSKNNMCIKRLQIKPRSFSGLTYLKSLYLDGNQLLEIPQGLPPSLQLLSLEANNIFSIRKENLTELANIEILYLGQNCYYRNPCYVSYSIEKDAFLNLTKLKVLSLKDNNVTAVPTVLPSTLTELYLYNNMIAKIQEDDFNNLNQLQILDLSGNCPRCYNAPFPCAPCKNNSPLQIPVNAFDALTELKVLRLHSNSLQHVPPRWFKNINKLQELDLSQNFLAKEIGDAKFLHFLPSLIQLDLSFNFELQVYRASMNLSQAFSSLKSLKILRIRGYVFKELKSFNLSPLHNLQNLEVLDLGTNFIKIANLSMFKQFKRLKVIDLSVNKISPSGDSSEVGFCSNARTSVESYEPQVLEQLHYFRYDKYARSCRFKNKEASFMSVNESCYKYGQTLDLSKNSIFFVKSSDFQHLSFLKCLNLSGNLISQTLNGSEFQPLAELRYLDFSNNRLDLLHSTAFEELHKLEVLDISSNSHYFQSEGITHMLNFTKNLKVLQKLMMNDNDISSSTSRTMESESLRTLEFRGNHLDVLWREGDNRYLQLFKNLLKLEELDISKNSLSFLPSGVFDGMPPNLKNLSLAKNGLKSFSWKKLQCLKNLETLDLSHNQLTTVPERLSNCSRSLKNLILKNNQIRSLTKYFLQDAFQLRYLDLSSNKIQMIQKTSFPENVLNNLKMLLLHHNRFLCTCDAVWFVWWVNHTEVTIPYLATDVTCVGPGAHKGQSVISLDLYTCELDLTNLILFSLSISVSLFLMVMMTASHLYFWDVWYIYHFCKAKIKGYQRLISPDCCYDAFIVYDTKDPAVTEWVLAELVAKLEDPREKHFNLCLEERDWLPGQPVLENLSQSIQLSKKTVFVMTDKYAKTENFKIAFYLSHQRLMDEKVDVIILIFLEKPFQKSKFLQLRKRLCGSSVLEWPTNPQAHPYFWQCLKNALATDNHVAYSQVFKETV
Outline: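 In this cell reporter format, test compounds at 0.05 nM-50 μM final incubate 22 h with seeded cells (TLR7 15000, TLR8 20,000 per well). SEAP read-out by HEK-Blue Detection medium yields % inhibition relative to agonist/DMSO and known-inhibitor wells.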

human TLR9 = molecular target: T2, human TLR9 (Homo sapiens, UniProt Q9NR96); assay: TLR9 inhibition reporter assay (HEK-Blue SEAP); format: cell-based; details: HEK-Blue cells overexpressing human TLR9, ODN2006 5 nM, 22 hour incubation
T2 construct: host or cells: HEK-Blue cells
T2 sequence (Q9NR96 26-1032): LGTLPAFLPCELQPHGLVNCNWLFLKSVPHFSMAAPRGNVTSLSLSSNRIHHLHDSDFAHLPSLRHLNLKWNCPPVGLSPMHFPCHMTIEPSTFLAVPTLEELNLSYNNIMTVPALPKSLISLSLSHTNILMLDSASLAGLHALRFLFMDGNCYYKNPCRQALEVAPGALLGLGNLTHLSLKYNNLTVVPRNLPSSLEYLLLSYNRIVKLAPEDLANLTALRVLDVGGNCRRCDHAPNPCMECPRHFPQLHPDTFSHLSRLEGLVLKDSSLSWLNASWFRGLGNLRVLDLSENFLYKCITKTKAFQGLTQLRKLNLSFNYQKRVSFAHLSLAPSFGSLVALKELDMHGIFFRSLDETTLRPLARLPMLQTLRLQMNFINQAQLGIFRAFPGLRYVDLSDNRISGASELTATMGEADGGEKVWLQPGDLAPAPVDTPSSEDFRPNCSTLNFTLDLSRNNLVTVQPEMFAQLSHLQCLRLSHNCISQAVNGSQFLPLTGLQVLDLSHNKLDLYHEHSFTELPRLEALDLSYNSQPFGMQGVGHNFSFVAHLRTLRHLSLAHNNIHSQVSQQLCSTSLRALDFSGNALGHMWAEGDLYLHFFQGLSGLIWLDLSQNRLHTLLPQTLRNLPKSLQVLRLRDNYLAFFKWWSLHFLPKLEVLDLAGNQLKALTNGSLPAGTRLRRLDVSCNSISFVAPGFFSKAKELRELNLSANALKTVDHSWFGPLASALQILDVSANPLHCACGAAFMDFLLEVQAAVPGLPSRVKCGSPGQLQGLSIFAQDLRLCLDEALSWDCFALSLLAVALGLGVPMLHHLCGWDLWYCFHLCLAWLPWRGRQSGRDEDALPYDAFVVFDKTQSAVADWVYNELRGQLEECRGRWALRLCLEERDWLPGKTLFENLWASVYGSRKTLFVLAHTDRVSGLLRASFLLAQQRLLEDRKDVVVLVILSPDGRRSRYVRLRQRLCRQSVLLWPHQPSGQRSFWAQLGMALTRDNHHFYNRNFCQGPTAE
Outline: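 Dose–response from 0.05 nM to 50 μM was run in HEK-Blue human TLR7, TLR8 and TLR9 reporter cells. After 30 min at room temperature with compound, ligand was added (TLR7 gardiquimod 7.5 μM; TLR8 R848 15.9 μM; TLR9 ODN2006 5 nM) and SEAP measured next day, at 22 h.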

COc1cc(-c2cc3[nH]c(=O)n(C4CCN(C)CC4)c3cc2C)cn2ncnc12 [Example 1, 5-(8-methoxy-[1,2,4]triazolo[1,5-a]pyridin-6-yl)-6-methyl-1-(1-methylpiperidin-4-yl)-1,3-dihydro-2H-benzo[d]imidazol-2-one]
IC50 (human TLR7): 37.9 nM
IC50 (human TLR9): 278 nM

Cc1cc2c(cc1-c1cc(C)c3ncnn3c1)[nH]c(=O)n2C1CCN(C(C)C)CC1 [Example 2, 1-(1-isopropylpiperidin-4-yl)-6-methyl-5-(8-methyl-[1,2,4]triazolo[1,5-a]pyridin-6-yl)-1,3-dihydro-2H-benzo[d]imidazol-2-one]
IC50 (human TLR7): 68.8 nM
IC50 (human TLR9): 5560 nM

Cc1cc2c(cc1-c1cc(C)c3ncnn3c1)[nH]c(=O)n2[C@H]1CC[C@@H](NCC(C)(C)C)CC1 [Example 32, 6-methyl-5-(8-methyl-[1,2,4]triazolo[1,5-a]pyridin-6-yl)-1-((1s,4s)-4-(neopentylamino)cyclohexyl)-1,3-dihydro-2H-benzo[d]imidazol-2-one]
IC50 (human TLR7): 20.4 nM
IC50 (human TLR9): 2340 nM

Cc1cc2c(cc1-c1cc(C)c3ncnn3c1)[nH]c(=O)n2[C@H]1CC[C@@H](NCc2ncn(C)n2)CC1 [Example 33, 6-methyl-1-((1s,4s)-4-(((1-methyl-1H-1,2,4-triazol-3-yl)methyl)amino)cyclohexyl)-5-(8-methyl-[1,2,4]triazolo[1,5-a]pyridin-6-yl)-1,3-dihydro-2H-benzo[d]imidazol-2-one]
IC50 (human TLR7): 138 nM
IC50 (human TLR9): 21100 nM

CCC(C)N[C@H]1CC[C@@H](n2c(=O)[nH]c3cc(-c4cc(C)c5ncnn5c4)c(C)cc32)CC1 (stereo partly shown) [Example 34, 1-((1s,4s)-4-(sec-butylamino)cyclohexyl)-6-methyl-5-(8-methyl-[1,2,4]triazolo[1,5-a]pyridin-6-yl)-1,3-dihydro-2H-benzo[d]imidazol-2-one]
IC50 (human TLR7): 20.5 nM
IC50 (human TLR9): 3340 nM

Cc1cc2c(cc1-c1cc(C)c3ncnn3c1)[nH]c(=O)n2[C@@H]1CCCN(Cc2ncn(C)n2)C1 [Example 35, (R)-6-methyl-1-(1-((1-methyl-1H-1,2,4-triazol-3-yl)methyl)piperidin-3-yl)-5-(8-methyl-[1,2,4]triazolo[1,5-a]pyridin-6-yl)-1,3-dihydro-2H-benzo[d]imidazol-2-one]
IC50 (human TLR7): 722 nM
IC50 (human TLR9): > 50000 nM

COc1ncc(CN2CCC[C@H](n3c(=O)[nH]c4cc(-c5cc(C)c6ncnn6c5)c(C)cc43)C2)cn1 [Example 36, (S)-1-(1-((2-methoxypyrimidin-5-yl)methyl)piperidin-3-yl)-6-methyl-5-(8-methyl-[1,2,4]triazolo[1,5-a]pyridin-6-yl)-1,3-dihydro-2H-benzo[d]imidazol-2-one]
IC50 (human TLR7): 171 nM
IC50 (human TLR9): 30600 nM

Cc1cc2c(cc1-c1cc(C)c3ncnn3c1)[nH]c(=O)n2[C@@H]1CCCN(CC2CC2)C1 [Example 37, (R)-1-(1-(cyclopropylmethyl)piperidin-3-yl)-6-methyl-5-(8-methyl-[1,2,4]triazolo[1,5-a]pyridin-6-yl)-1,3-dihydro-2H-benzo[d]imidazol-2-one]
IC50 (human TLR7): 30.9 nM
IC50 (human TLR9): 10100 nM

Cc1cc2c(cc1-c1cc(C)c3ncnn3c1)[nH]c(=O)n2[C@@H]1CCCN(CCCC(F)(F)F)C1 [Example 39, (R)-6-methyl-5-(8-methyl-[1,2,4]triazolo[1,5-a]pyridin-6-yl)-1-(1-(4,4,4-trifluorobutyl)piperidin-3-yl)-1,3-dihydro-2H-benzo[d]imidazol-2-one]
IC50 (human TLR7): 139 nM
IC50 (human TLR9): 10600 nM

Cc1cc2c(cc1-c1cc(C)c3ncnn3c1)[nH]c(=O)n2[C@@H]1CCCN(CC(C)C)C1 [Example 40, (R)-1-(1-isobutylpiperidin-3-yl)-6-methyl-5-(8-methyl-[1,2,4]triazolo[1,5-a]pyridin-6-yl)-1,3-dihydro-2H-benzo[d]imidazol-2-one]
IC50 (human TLR7): 14.8 nM
IC50 (human TLR9): 6470 nM

Cc1cc2c(cc1-c1cc(C)c3ncnn3c1)[nH]c(=O)n2[C@@H]1CCCN(CC2CCOCC2)C1 [Example 41, (R)-6-methyl-5-(8-methyl-[1,2,4]triazolo[1,5-a]pyridin-6-yl)-1-(1-((tetrahydro-2H-pyran-4-yl)methyl)piperidin-3-yl)-1,3-dihydro-2H-benzo[d]imidazol-2-one]
IC50 (human TLR7): 12.3 nM
IC50 (human TLR9): 8120 nM

CCCN1CCC[C@@H](n2c(=O)[nH]c3cc(-c4cc(C)c5ncnn5c4)c(C)cc32)C1 [Example 42, (R)-6-methyl-5-(8-methyl-[1,2,4]triazolo[1,5-a]pyridin-6-yl)-1-(1-propylpiperidin-3-yl)-1,3-dihydro-2H-benzo[d]imidazol-2-one]
IC50 (human TLR7): 26.3 nM
IC50 (human TLR9): 10500 nM

Cc1cc2c(cc1-c1cc(C)c3ncnn3c1)[nH]c(=O)n2[C@@H]1CCCN(CC2CCOC2)C1 (stereo partly drawn) [Example 43, 6-methyl-5-(8-methyl-[1,2,4]triazolo[1,5-a]pyridin-6-yl)-1-((3R)-1-((tetrahydrofuran-3-yl)methyl)piperidin-3-yl)-1,3-dihydro-2H-benzo[d]imidazol-2-one]
IC50 (human TLR7): 88.5 nM
IC50 (human TLR9): 16500 nM

Cc1cc2c(cc1-c1cc(C)c3ncnn3c1)[nH]c(=O)n2[C@@H]1CCCN(CCC(C)(C)C)C1 [Example 44, (R)-1-(1-(3,3-dimethylbutyl)piperidin-3-yl)-6-methyl-5-(8-methyl-[1,2,4]triazolo[1,5-a]pyridin-6-yl)-1,3-dihydro-2H-benzo[d]imidazol-2-one]
IC50 (human TLR7): 104 nM
IC50 (human TLR9): 4720 nM

CCC(CC)CN1CCC[C@@H](n2c(=O)[nH]c3cc(-c4cc(C)c5ncnn5c4)c(C)cc32)C1 [Example 45, (R)-1-(1-(2-ethylbutyl)piperidin-3-yl)-6-methyl-5-(8-methyl-[1,2,4]triazolo[1,5-a]pyridin-6-yl)-1,3-dihydro-2H-benzo[d]imidazol-2-one]
IC50 (human TLR7): 29.5 nM
IC50 (human TLR9): 3030 nM

Cc1cc2c(cc1-c1cc(C)c3ncnn3c1)[nH]c(=O)n2[C@@H]1CCCN(Cc2cccnc2)C1 [Example 46, (R)-6-methyl-5-(8-methyl-[1,2,4]triazolo[1,5-a]pyridin-6-yl)-1-(1-(pyridin-3-ylmethyl)piperidin-3-yl)-1,3-dihydro-2H-benzo[d]imidazol-2-one]
IC50 (human TLR7): 172 nM
IC50 (human TLR9): 7670 nM

Cc1cc2c(cc1-c1cc(C)c3ncnn3c1)[nH]c(=O)n2[C@@H]1CCCN(CC2CCCC2)C1 [Example 47, (R)-1-(1-(cyclopentylmethyl)piperidin-3-yl)-6-methyl-5-(8-methyl-[1,2,4]triazolo[1,5-a]pyridin-6-yl)-1,3-dihydro-2H-benzo[d]imidazol-2-one]
IC50 (human TLR7): 18.5 nM
IC50 (human TLR9): 3620 nM
